Patent US10233422B2, “Pluripotent cell lines and methods of use thereof” (Parkinson's Institute, priority 2008, dated 2019)

System: paraquat-treated mouse brain
Experiment: Ex vivo screening of anti-aggregation compounds: Thioflavin S deposits in paraquat-treated mouse brain
Details: 250 uM, FIG. 33D-E

Oc1ccccc1O [Catechol, catechol]
Thioflavin S deposits (which label aggregate protein): Diminished Thioflavin S deposits
